Data: the supplement of paper PMC11208160
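Further: IS621 bridge recombinase in Escherichia coli cells against a fixed T5 target plasmid.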

Test: recombinant UMI read abundance after kanamycin selection (control-corrected) (log10(CPM+1)); higher = more efficient recombination; extreme values may be limits of the assay; sequences stand for … in AGTGCAGAGAAAATCGGCCAGTTTTCTCTGCCTGCAGTCCGCATGCCGTGGGACCCCTTGGGTTCTAACCTGTTGCCTAGATTTATGCAGCGGACTGCCTTTCTCCCAAAGTGATAAACCGG…AGGTTGGTTTCACT; site = the 11-nt donor
Summary of the method: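 For the IS621 bridge recombinase, a pooled Escherichia coli screen tested donor and donor-binding-loop pairs. Cells received the pair library together with a target plasmid encoding a fixed target and T7-inducible recombinase, then went onto IPTG (0.07 mM) plus kanamycin or unselected plates in duplicate. After PCR across the donor–target junction and sequencing, recombinant UMI counts were normalized to CPM, averaged, and scaled by control-derived factors. Each value is given as log10(CPM+1).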
With “GAAGCGCCATGGACCGGTTTTCCCGGTAATCCGTATTTGTG (site AAAGCGCCTCA)” the “recombinant UMI read abundance (log10)” value was 0.00334. For “GAAGCGCCATGGACCGGTTTTCCCGGTAATCCGTATTTGTG (site CAAGCGCCTCA)”, the “recombinant UMI read abundance (log10)” value was 0.00406. With “GAAGCGCCATGGACCGGTTTTCCCGGTAATCCGTATTTGTG (site GAAGCGCCTCA)” the “recombinant UMI read abundance (log10)” value was 0.139. With “GAAGCGCCATGGACCGGTTTTCCCGGTAATCCGTATTTGTG (site TAAGCGCCTCA)” the “recombinant UMI read abundance (log10)” value was 0.00772. In the case of “GAAGGGCCATGGACCGGTTTTCCCGGTAATCCGTATTTGTG (site GAAGGGCCTCA)”, the “recombinant UMI read abundance (log10)” value is reported as 0.0149. With “GAAGGTACATGGACCGGTTTTCCCGGTAATCCGTATTTGAC (site GAAGGTACTGT)” the “recombinant UMI read abundance (log10)” value was 2.28. For “GAAGGTACATGGACCGGTTTTCCCGGTAATCCGTATTTGAC (site GCAGGTACTGT)”, the “recombinant UMI read abundance (log10)” value was 0. In the case of “GAAGGTACATGGACCGGTTTTCCCGGTAATCCGTATTTGAC (site GGAGGTACTGT)”, the “recombinant UMI read abundance (log10)” value is reported as 0. With “GAAGGTACATGGACCGGTTTTCCCGGTAATCCGTATTTGAC (site GTAGGTACTGT)” the “recombinant UMI read abundance (log10)” value was 2.16. With “GAAGTCGCATGGACCGGTTTTCCCGGTAATCCGTATTTGGT (site GAAGTCGCTAC)” the “recombinant UMI read abundance (log10)” value was 1.34. For “GAAGTGGCATGGACCGGTTTTCCCGGTAATCCGTATTTGGT (site GAAGTGGCTAC)”, the “recombinant UMI read abundance (log10)” value was 0.489. For “GAAGTGGCATGGACCGGTTTTCCCGGTAATCCGTATTTGGT (site GCAGTGGCTAC)”, the “recombinant UMI read abundance (log10)” value was 0.177. With “GAAGTGGCATGGACCGGTTTTCCCGGTAATCCGTATTTGGT (site GGAGTGGCTAC)” the “recombinant UMI read abundance (log10)” value was 0.113. In the case of “GAAGTGGCATGGACCGGTTTTCCCGGTAATCCGTATTTGGT (site GTAGTGGCTAC)”, the “recombinant UMI read abundance (log10)” value is reported as 0.882. For “GAAGTGTCATGGACCGGTTTTCCCGGTAATCCGTATTTGAA (site GAAGTGTCTTT)”, the “recombinant UMI read abundance (log10)” value was 3.13. For “GAATAGCCATGGACCGGTTTTCCCGGTAATCCGTATTTGCA (site GAATAGCCTTG)”, the “recombinant UMI read abundance (log10)” value was 0.97. For “GAATAGCCATGGACCGGTTTTCCCGGTAATCCGTATTTGCA (site GAATCGCCTTG)”, the “recombinant UMI read abundance (log10)” value was 0. For “GAATAGCCATGGACCGGTTTTCCCGGTAATCCGTATTTGCA (site GAATGGCCTTG)”, the “recombinant UMI read abundance (log10)” value was 0.0428. With “GAATAGCCATGGACCGGTTTTCCCGGTAATCCGTATTTGCA (site GAATTGCCTTG)” the “recombinant UMI read abundance (log10)” value was 0. For “GAATGAGCATGGACCGGTTTTCCCGGTAATCCGTATTTGGG (site AAATGAGCTCC)”, the “recombinant UMI read abundance (log10)” value was 0.0126. In the case of “GAATGAGCATGGACCGGTTTTCCCGGTAATCCGTATTTGGG (site CAATGAGCTCC)”, the “recombinant UMI read abundance (log10)” value is reported as 0.0211. For “GAATGAGCATGGACCGGTTTTCCCGGTAATCCGTATTTGGG (site GAATGAGCTCC)”, the “recombinant UMI read abundance (log10)” value was 0.261. In the case of “GAATGAGCATGGACCGGTTTTCCCGGTAATCCGTATTTGGG (site TAATGAGCTCC)”, the “recombinant UMI read abundance (log10)” value is reported as 0.317. For “GAATGGCCATGGACCGGTTTTCCCGGTAATCCGTATTTGCC (site GAATGGCCTAG)”, the “recombinant UMI read abundance (log10)” value was 0. For “GAATGGCCATGGACCGGTTTTCCCGGTAATCCGTATTTGCC (site GAATGGCCTCG)”, the “recombinant UMI read abundance (log10)” value was 0.0106. With “GAATGGCCATGGACCGGTTTTCCCGGTAATCCGTATTTGCC (site GAATGGCCTGG)” the “recombinant UMI read abundance (log10)” value was 0. With “GAATGGCCATGGACCGGTTTTCCCGGTAATCCGTATTTGCC (site GAATGGCCTTG)” the “recombinant UMI read abundance (log10)” value was 0. For “GAATGGCCATGGACCGGTTTTCCCGGTAATCCGTATTTGCG (site GAATGGCCTAG)”, the “recombinant UMI read abundance (log10)” value was 0. With “GAATGGCCATGGACCGGTTTTCCCGGTAATCCGTATTTGCG (site GAATGGCCTCG)” the “recombinant UMI read abundance (log10)” value was 0.0153. For “GAATGGCCATGGACCGGTTTTCCCGGTAATCCGTATTTGCG (site GAATGGCCTGG)”, the “recombinant UMI read abundance (log10)” value was 0. With “GAATGGCCATGGACCGGTTTTCCCGGTAATCCGTATTTGCG (site GAATGGCCTTG)” the “recombinant UMI read abundance (log10)” value was 0. In the case of “GAATGGCCATGGACCGGTTTTCCCGGTAATCCGTATTTGGA (site GAATGGCCTTA)”, the “recombinant UMI read abundance (log10)” value is reported as 0. With “GAATGGCCATGGACCGGTTTTCCCGGTAATCCGTATTTGGA (site GAATGGCCTTC)” the “recombinant UMI read abundance (log10)” value was 0.00798. With “GAATGGCCATGGACCGGTTTTCCCGGTAATCCGTATTTGGA (site GAATGGCCTTG)” the “recombinant UMI read abundance (log10)” value was 0. With “GAATGGCCATGGACCGGTTTTCCCGGTAATCCGTATTTGGA (site GAATGGCCTTT)” the “recombinant UMI read abundance (log10)” value was 0.0129. In the case of “GAATGGCCATGGACCGGTTTTCCCGGTAATCCGTATTTGTA (site GAATGGCCTTA)”, the “recombinant UMI read abundance (log10)” value is reported as 0.142. With “GAATGGCCATGGACCGGTTTTCCCGGTAATCCGTATTTGTA (site GAATGGCCTTC)” the “recombinant UMI read abundance (log10)” value was 0.0097. With “GAATGGCCATGGACCGGTTTTCCCGGTAATCCGTATTTGTA (site GAATGGCCTTG)” the “recombinant UMI read abundance (log10)” value was 0.00609. For “GAATGGCCATGGACCGGTTTTCCCGGTAATCCGTATTTGTA (site GAATGGCCTTT)”, the “recombinant UMI read abundance (log10)” value was 0.0207. With “GACAAACCATGGACCGGTTTTCCCGGTAATCCGTATTTGCT (site GACAAACCTAA)” the “recombinant UMI read abundance (log10)” value was 0.00711. In the case of “GACAAACCATGGACCGGTTTTCCCGGTAATCCGTATTTGCT (site GACAAACCTAC)”, the “recombinant UMI read abundance (log10)” value is reported as 0. With “GACAAACCATGGACCGGTTTTCCCGGTAATCCGTATTTGCT (site GACAAACCTAG)” the “recombinant UMI read abundance (log10)” value was 0. With “GACAAACCATGGACCGGTTTTCCCGGTAATCCGTATTTGCT (site GACAAACCTAT)” the “recombinant UMI read abundance (log10)” value was 0. With “GACAAACCATGGACCGGTTTTCCCGGTAATCCGTATTTGGA (site GACAAACCTAC)” the “recombinant UMI read abundance (log10)” value was 0.0269. For “GACAAACCATGGACCGGTTTTCCCGGTAATCCGTATTTGGA (site GACAAACCTCC)”, the “recombinant UMI read abundance (log10)” value was 0. For “GACAAACCATGGACCGGTTTTCCCGGTAATCCGTATTTGGA (site GACAAACCTGC)”, the “recombinant UMI read abundance (log10)” value was 0. For “GACAAACCATGGACCGGTTTTCCCGGTAATCCGTATTTGGA (site GACAAACCTTC)”, the “recombinant UMI read abundance (log10)” value was 0. For “GACAAACCATGGACCGGTTTTCCCGGTAATCCGTATTTGTT (site GACAAACCTAA)”, the “recombinant UMI read abundance (log10)” value was 0. For “GACAAACCATGGACCGGTTTTCCCGGTAATCCGTATTTGTT (site GACAAACCTAC)”, the “recombinant UMI read abundance (log10)” value was 0. For “GACAAACCATGGACCGGTTTTCCCGGTAATCCGTATTTGTT (site GACAAACCTAG)”, the “recombinant UMI read abundance (log10)” value was 0. For “GACAAACCATGGACCGGTTTTCCCGGTAATCCGTATTTGTT (site GACAAACCTAT)”, the “recombinant UMI read abundance (log10)” value was 0. In the case of “GACACACCATGGACCGGTTTTCCCGGTAATCCGTATTTGGT (site GACAAACCTAC)”, the “recombinant UMI read abundance (log10)” value is reported as 0. For “GACACACCATGGACCGGTTTTCCCGGTAATCCGTATTTGGT (site GACACACCTAC)”, the “recombinant UMI read abundance (log10)” value was 0.00264. With “GACACACCATGGACCGGTTTTCCCGGTAATCCGTATTTGGT (site GACAGACCTAC)” the “recombinant UMI read abundance (log10)” value was 0.00253. For “GACACACCATGGACCGGTTTTCCCGGTAATCCGTATTTGGT (site GACATACCTAC)”, the “recombinant UMI read abundance (log10)” value was 0.00315. For “GACCACCCATGGACCGGTTTTCCCGGTAATCCGTATTTGTT (site GACCACCCTAA)”, the “recombinant UMI read abundance (log10)” value was 0.0158. With “GACCACCCATGGACCGGTTTTCCCGGTAATCCGTATTTGTT (site GCCCACCCTAA)” the “recombinant UMI read abundance (log10)” value was 0.0164.
